{"source": "patent US20210308120A1", "about": "“Use of Amitriptyline for Blocking Brain Hemichannels and Method for Potentiating its Effect in Vivo” (THERANEXUS, priority 2015, published 2021)", "key": {"[1]": {"tested_on": "mice subjected to FST", "test": "Forced Swim Test (FST)", "format": "in vivo, mouse", "settings": "2nd 3-min period", "method": "The FST is the most used rodent model for screening antidepressants (Porsolt et al, 1977). Mice were dropped individually in a glass cylinder (25 cm high, 9 cm diameter) filled with 10 cm 25° C. water. The experiment was recorded with a camcorder, placed in front of the glass cylinders. Video were scored at a later time by an experimenter blind to the treatments. The indices of depression-related behavior are the immobility time, the swimming time and the climbing time.\nFST test evaluates the despair behavior which is commonly reversed by antidepressants. During FST, the swimming time of each mouse was measured on each 1-min period, on 1st and 2nd 3-min periods."}, "[2]": {"tested_on": "SN-CCI rats (neuropathic pain, hyperalgesia)", "test": "Randall & Selitto test in SN-CCI rats, repeated administration every 150 minutes", "format": "in vivo, rat", "settings": "amitriptyline alone i.p. every 150 min; at 90 and 240 min", "method": "(§1) One week after their arrival, rats were anesthetized with sodium pentobarbital before exposing the common sciatic nerve. As described in Bennett's article, four chromic catgut (5-0) ligations were tied loosely proximally to the sciatic trifurcation (Bennett and Xie, 1988).\n(§2) All behavioral assessments were conducted between 9 a.m. and 5 p.m. in a quiet room. An increasing pressure was applied to the right hind paw of SN-CCI (Sciatic Nerve-Chronic Constriction Injury) rat to evaluate hyperalgesia-like behavior (Viguier and al, 2013). Values correspond to the pressure threshold producing the paw withdrawal and then the vocalization of the rat."}, "[3]": {"tested_on": "LPS-injected mice (neuro-inflammation)", "test": "LPS-induced model of neuro-inflammation (coat state score, weight loss)", "format": "in vivo, mouse", "settings": "amitriptyline 1 mg/kg ± mefloquine 1 mg/kg", "description": "FIG. 13 represents the coat state scores evaluated three hours after treatment in a LPS-induced model of neuro-inflammation (left graph). The right graph represents the amount of weight loss between three hours of treatment and just before treatment in a LPS-induced model of neuro-inflammation (right graph). Control mice were ip injected with saline solution. […] In both graphs: n=4-6 mice per group, data are presented as means±SEM and compared with a One-way ANOVA followed by Tukey's post-hoc test, *p<0.05, […] versus CONTROL-treated mice.\nAdult Swiss male mice were used in the LPS model. Mice were kept in collective cages for habituation to the facility for one week before experimental testing. Afterwards, they were housed in individual cages two days before the experiment started with food and water ad libitum. Mice were maintained on a light/dark cycle of 12 hours with light onset at 8h00 and with a controlled temperature of 21° C.±1° C. […]\nCoat state score was evaluated three hours after treatment. […] The cleanness fur state was evaluated for each of these five body parts. […]\nGeneral physiological state of the animals was assessed by the normalised weight loss; defined as the difference between weight measures three hours after treatment (T0+24 h) and just before treatment (T0+21 h)."}, "[4]": {"tested_on": "REM sleep in mice", "test": "Quantification of sleep-wake episodes (REM sleep), EEG/EMG", "format": "in vivo, mouse", "settings": "amitriptyline 1 mg/kg i.p., combined or not with mefloquine 1 mg/kg i.p.; vs control", "description": "Mice were implanted with cortical and muscle electrodes to record the electroencephalogram (EEG) and electromyogram (EMG) and to monitor the sleep-wake cycle. This implantation allows stable and long-lasting polysomnographic recordings (Parmentier et al, 2002).\nPolysomnographic records were visually scored by 10-s epochs for wakefulness (W), slow wave sleep (SWS), and paradoxical or rapid eye movement (REM) sleep.\nMice were registered by electroencephalogram to quantify sleep-wake episodes."}, "[5]": {"tested_on": "SN-CCI rats (neuropathic pain, hyperalgesia)", "test": "Randall & Selitto test in SN-CCI rats, chronic 14-day administration", "format": "in vivo, rat", "settings": "amitriptyline 12 mg/kg s.c. osmotic pump; mefloquine 0.5 mg/kg i.p. twice a day; 14 days; vs saline", "description": "Data are the means±S.E.M. of n=8-14 rats.\nData are the means±S.E.M. of n=8-14 rats. *p<0.05, **p<0.01, ***p<0.001 as compared with “saline+saline” group at the same time, ≠p<0.05 as compared between amitriptyline groups, two-way ANOVA, Bonferroni test.\nas §1, §2\n(§3) Osmotic mini-pumps (Alzet, model 2ML2), delivering for the following 14 days amitriptyline or vehicle were subcutaneously implanted.\na) Rats were ligated on sciatic nerve and then tested with the Randall & Selitto test 14 days after surgery, to evaluate hyperalgesia quantified as pressure threshold. Neuropathic rats, characterized by a decrease of pressure threshold after surgery, were then treated during 14 days and tested by the Randall & Selitto test during this period."}, "[6]": {"settings": "rats; cited from earlier work"}, "[7]": {"test": "Pharmacokinetic of amitriptyline in brain and serum of SN-CCI rats", "format": "in vivo, rat", "settings": "amitriptyline 12 mg/kg osmotic pump ± mefloquine 0.5 mg/kg i.p. bidaily, 14 days", "method": "Blood was collected and kept 1 hour at 4° C. Then serum and brain were collected. Amitriptyline was quantified by HPLC and mass spectrometry (Crepta laboratory).\nas §3\nAfter 14-day treatment, so 28 days after surgery, rats were sacrificed and brain as well as serum samples were collected to quantify amitriptyline."}}}
{"smiles": "CN(C)CCC=C1c2ccccc2CCc2ccccc21", "note": "[amitriptyline, 3-(5,6-dihydrodibenzo[2,1-b:2′,1′-f][7]annulen-11-ylidene)-N,N-dimethylpropan-1-amine]", "values": [{"measurement": "Swimming time", "setting": "[1]; amitriptyline 12 mg/kg per os alone", "value": "not significant"}, {"measurement": "Swimming time", "setting": "[1]; amitriptyline 24 mg/kg per os, single", "value": "significant increase of the swimming time"}, {"measurement": "Paw withdrawal threshold", "setting": "[2]", "value": "did not induce significant effect on its own"}, {"measurement": "Weight loss", "setting": "[3]; between just before and three hours after oral treatment", "value": "induces a decrease in weight loss"}, {"measurement": "Coat state score (grooming activity)", "setting": "[3]; three hours after oral treatment, LPS 0.33 mg/kg i.p.", "value": "tendency to reduce the deterioration of coat state"}, {"measurement": "REM sleep duration", "setting": "[4]", "value": "did not induce significant reduction on its own"}, {"measurement": "Paw withdrawal threshold (pressure)", "setting": "[5]", "value": "significant increase of the paw withdrawal threshold at day 14"}, {"measurement": "Vocalization threshold (pressure)", "setting": "[5]", "value": "increase of the vocalization threshold"}, {"measurement": "Half-life", "setting": "[6]", "value": 2.5, "unit": "h"}, {"measurement": "Amitriptyline concentration in brain, with vs without mefloquine", "setting": "[7]", "value": "No changes"}, {"measurement": "Amitriptyline concentration in serum, with vs without mefloquine", "setting": "[7]", "value": "No changes"}, {"measurement": "Amitriptyline ratio brain/plasma, with vs without mefloquine", "setting": "[7]", "value": "no significant difference"}]}
